In patent publication US11053239B2, “Compounds as BLC-2-selective apoptosis-inducing agents” (Fochon Pharmaceuticals, Ltd., priority 2017, dated 2021):
Read-outs that look alike come from different tables or passages of the source.

Experiments:
RS4; 11 cells = assay: Cell proliferation assay (MTS), RS4; 11 cells; type: cell-based; conditions: RS4, 11 (ATCC CRL-1873) cell proliferation, 30000 cells/well, 72 h, MTS, mechanism-based readout of Bcl-2 inhibition, read-out: RS4, 11 IC50
Text: (§1) MTS testing kit was purchased from Promega. The RPMI-1640, Fetal bovine serum and Penicillin-Streptomycin were purchased from Gibco. Dimethyl sulfoxide (DMSO) was purchased from Sigma.
(§2) To investigate whether a compound is able to inhibit the activity of Bcl-2 in cells, a mechanism-based assay using DOHH2 (DSMZ No.® ACC 47) and RS4; 11 (ATCC® CRL-1873™) cell was developed. In this assay, inhibition of Bcl-2 was detected by the inhibition of DOHH2 and RS4; 11 cells proliferation. DOHH2 and RS4; 11 cells were cultured in culture flasks to 40-80% confluence in RPMI-1640 plus 10% fetal bovine serum. Cells were collected and plated onto 96-well plates at desired cell density (DOHH2: 5000 cells/well; RS4; 11: 30000 cells/well). Plates were incubated overnight at 37° C., with 5% CO2 to adhere. Compounds were added to the plates, and the final compound concentrations were 10000, 3333, 1111, […], 124, 41, 14, 4.6 and 1.5 nM. Plates plated with DOHH2 or RS4; 11 cells were placed at 37° C., with 5% CO2 for 120 h (DOHH2) or 72 h (RS4; 11) respectively. 20 μl MTS/100 μl medium mixture solution were added to each well and incubate the plates for exactly 2 hours. The reaction was stopped by adding 25 μl 10% SDS per well. Measure absorbance at 490 nm and 650 nm (reference wavelength). ICso was calculated using GraphPad Prism 5.0.

DOHH2 cells = assay: Cell proliferation assay (MTS), DOHH2 cells; type: cell-based; conditions: DOHH2 (DSMZ ACC 47) cell proliferation, 5000 cells/well, 120 h, MTS, mechanism-based readout of Bcl-2 inhibition, read-out: DOHH2 IC50
Text: as §1, §2

IC50 (RS4; 11 cells; Homo sapiens, RS4-11, 72 h) [nM]	Compound	IC50 (DOHH2 cells; Homo sapiens, DOHH-2, 120 h) [nM]	IC50 (RS4; 11 cells) [nM]	IC50 (DOHH2 cells) [nM]
119	C[C@@H](CCN1CCS(=O)(=NC(=O)C2CC2)CC1)Nc1ccc(S(=O)(=O)NC(=O)c2ccc(N3CCN(CC4=C(c5ccc(Cl)cc5)CC(C)(C)CC4)CC3)cc2Oc2cnc3[nH]ccc3c2)cc1S(=O)(=O)C(F)(F)F [Example 91, (S)-2-((1H-pyrrolo[2,3-b]pyridin-5-yl)oxy)-4-(4-((4′-chloro-5,5-dimethyl-3,4,5,6-tetrahydro-[1,1′-biphenyl]-2-yl)methyl)piperazin-1-yl)-N-((4-((4-(1-((cyclopropanecarbonyl)imino)-1-oxido-1λ^6-thiomorpholino)butan-2-yl)amino)-3-((trifluoromethyl)sulfonyl)phenyl)sulfonyl)benzamide]	255		
35	CC1(C)CCC(CN2CCN(c3ccc(C(=O)NS(=O)(=O)c4ccc(NCC5CC(N=S(C)(C)=O)C5)c([N+](=O)[O-])c4)c(Oc4cnc5[nH]ccc5c4)c3)CC2)=C(c2ccc(Cl)cc2)C1 (centres unmarked) [Example 59, 2-((1H-pyrrolo[2,3-b]pyridin-5-yl)oxy)-4-(4-((4′-chloro-5,5-dimethyl-3,4,5,6-tetrahydro-[1,1′-biphenyl]-2-yl)methyl)piperazin-1-yl)-N-((4-(((3-((dimethyl(oxo)-λ^6-sulfanylidene)amino)cyclobutyl)methyl)amino)-3-nitrophenyl)sulfonyl)benzamide]	82		
106	CCN=S1(=O)CCN(CCNc2ccc(S(=O)(=O)NC(=O)c3ccc(N4CCN(CC5=C(c6ccc(Cl)cc6)CC(C)(C)CC5)CC4)cc3Oc3cnc4[nH]ccc4c3)cc2[N+](=O)[O-])CC1 [Example 34, 2-((1H-pyrrolo[2,3-b]pyridin-5-yl)oxy)-4-(4-((4′-chloro-5,5-dimethyl-3,4,5,6-tetrahydro-[1,1′-biphenyl]-2-yl)methyl)piperazin-1-yl)-A,-((4-((2-(1-(ethylimino)-1-oxido-1λ^6-thiomorpholino)ethyl)amino)-3-nitrophenyl)sulfonyl) benzamide]	38		
29	CC(=O)N=S1(=O)CCN(C[C@H](C)Nc2ccc(S(=O)(=O)NC(=O)c3ccc(N4CCN(CC5=C(c6ccc(Cl)cc6)CC(C)(C)CC5)CC4)cc3Oc3cnc4[nH]ccc4c3)cc2[N+](=O)[O-])CC1 [Example 40, (S)-2-((1H-pyrrolo[2,3-b]pyridin-5-yl)oxy)-N-((4-((1-(1-(acetylimino)-1-oxido-1λ^6-thiomorpholino)propan-2-yl)amino)-3-nitrophenyl)sulfonyl)-4-(4-((4′-chloro-5,5-dimethyl-3,4,5,6-tetrahydro-[1,1′-biphenyl]-2-yl)methyl)piperazin-1-yl)benzamide]	84		
231	CC1(C)CCC(CN2CCN(c3ccc(C(=O)NS(=O)(=O)c4ccc(NCC5CCC(N=S6(=O)CCOCC6)CC5)c(S(=O)(=O)C(F)(F)F)c4)c(Oc4cnc5[nH]ccc5c4)c3)CC2)=C(c2ccc(Cl)cc2)C1 (centres unmarked) [Example 55, 2-((1H-pyrrolo[2,3-b]pyridin-5-yl)oxy)-4-(4-((4′-chloro-5,5-dimethyl-3,4,5,6-tetrahydro-[1,1′-biphenyl]-2-yl)methyl)piperazin-1-yl)-N-((4-(((4-((4-oxido-1,4λ^6-oxathian-4-ylidene)amino)cyclohexyl)methyl)amino)-3-((trifluoromethyl)sulfonyl)phenyl)sulfonyl) benzamide]	346		
	2-((1H-pyrrolo[2,3-b] pyridin-5-yl)oxy)-4-(4-((4′- chloro-5,5-dimethyl-3,4,5,6- tetrahydro-[1,1′-biphenyl]-2-yl) methyl)piperazin-1-yl)- N-((4-((2-(4-((dimethyl(oxo)-λ^6- sulfanylidene) amino)piperidin-1-yl)ethyl) amino)-3-nitrophenyl)sulfonyl) benzamide [Example 98]		2	176
216	CC1(C)CCC(CN2CCN(c3ccc(C(=O)NS(=O)(=O)c4ccc(NCC5CCC(N=S6(=O)CCCC6)CC5)c(S(=O)(=O)C(F)(F)F)c4)c(Oc4cnc5[nH]ccc5c4)c3)CC2)=C(c2ccc(Cl)cc2)C1 (centres unmarked) [Example 64, 2-((1H-pyrrolo[2,3-b]pyridin-5-yl)oxy)-4-(4-((4′-chloro-5,5-dimethyl-3,4,5,6-tetrahydro-[1,1′-biphenyl]-2-yl)methyl)piperazin-1-yl)-N-((4-(((4-((1-oxidotetrahydro-1λ^6-thiophen-1-ylidene)amino)cyclohexyl)methyl)amino)-3-((trifluoromethyl)sulfonyl)phenyl)sulfonyl)benzamide]	320		
22	C[C@@H](CCN1CCS(=O)(=NC#N)CC1)Nc1ccc(S(=O)(=O)NC(=O)c2ccc(N3CCN(CC4=C(c5ccc(Cl)cc5)CC(C)(C)CC4)CC3)cc2Oc2cnc3[nH]ccc3c2)cc1[N+](=O)[O-] [Example 95, (S)-2-((1H-pyrrolo[2,3-b]pyridin-5-yl)oxy)-4-(4-((4′-chloro-5,5-dimethyl-3,4,5,6-tetrahydro-[1,1′-biphenyl]-2-yl)methyl)piperazin-1-yl)-N-((4-((4-(1-(cyanoimino)-1-oxido-1λ^6-thiomorpholino)butan-2-yl)amino)-3-nitrophenyl)sulfonyl) benzamide]	71		
16	CCN=S1(=O)CCN(CC[C@H](C)Nc2ccc(S(=O)(=O)NC(=O)c3ccc(N4CCN(CC5=C(c6ccc(Cl)cc6)CC(C)(C)CC5)CC4)cc3Oc3cnc4[nH]ccc4c3)cc2[N+](=O)[O-])CC1 [Example 78, (S)-2-((1H-pyrrolo[2,3-b]pyridin-5-yl)oxy)-4-(4-((4′-chloro-5,5-dimethyl-3,4,5,6-tetrahydro-[1,1′-biphenyl]-2-yl)methyl)piperazin-1-yl)-N-((4-((4-(1-(ethylimino)-1-oxido-1λ^6-thiomorpholino)butan-2-yl)amino)-3-nitrophenyl)sulfonyl) benzamide]	11		
18	C[C@@H](CCN1CCS(=O)(=NC(=O)C2CC2)CC1)Nc1ccc(S(=O)(=O)NC(=O)c2ccc(N3CCN(CC4=C(c5ccc(Cl)cc5)CC(C)(C)CC4)CC3)cc2Oc2cnc3[nH]ccc3c2)cc1[N+](=O)[O-] [Example 83, (S)-2-((1H-pyrrolo[2,3-b]pyridin-5-yl)oxy)-4-(4-((4′-chloro-5,5-dimethyl-3,4,5,6-tetrahydro-[1,1′-biphenyl]-2-yl)methyl)piperazin-1-yl)-N-((4-((4-(1-((cyclopropanecarbonyl)imino)-1-oxido-1λ^6-thiomorpholino)butan-2-yl)amino)-3-nitrophenyl)sulfonyl)benzamide]	47		
187	C[C@@H](CCN1CCS(=O)(=NC2CC2)CC1)Nc1ccc(S(=O)(=O)NC(=O)c2ccc(N3CCN(CC4=C(c5ccc(Cl)cc5)CC(C)(C)CC4)CC3)cc2Oc2cnc3[nH]ccc3c2)cc1S(=O)(=O)C(F)(F)F [Example 88, (S)-2-((1H-pyrrolo[2,3-b]pyridin-5-yl)oxy)-4-(4-((4′-chloro-5,5-dimethyl-3,4,5,6-tetrahydro-[1,1′-biphenyl]-2-yl)methyl)piperazin-1-yl)-N-((4-((4-(1-(cyclopropylimino)-1-oxido-1λ^6-thiomorpholino)butan-2-yl)amino)-3-((trifluoromethyl)sulfonyl)phenyl)sulfonyl)benzamide]	464		
11	CCC(=O)N=S1(=O)CCN(C[C@H](C)Nc2ccc(S(=O)(=O)NC(=O)c3ccc(N4CCN(CC5=C(c6ccc(Cl)cc6)CC(C)(C)CC5)CC4)cc3Oc3cnc4[nH]ccc4c3)cc2[N+](=O)[O-])CC1 [Example 65, (S)-2-((1H-pyrrolo[2,3-b]pyridin-5-yl)oxy)-4-(4-((4′-chloro-5,5-dimethyl-3,4,5,6-tetrahydro-[1,1′-biphenyl]-2-yl)methyl)piperazin-1-yl)-N-((3-nitro-4-((l-(1-oxido-1-(propionylimino)-1λ^6-thiomorpholino)propan-2-yl)amino)phenyl)sulfonyl) benzamide]	31		
33	CC1(C)CCC(CN2CCN(c3ccc(C(=O)NS(=O)(=O)c4ccc(NCC5CCS(=O)(=NC6CC6)CC5)c(S(=O)(=O)C(F)(F)F)c4)c(Oc4cnc5[nH]ccc5c4)c3)CC2)=C(c2ccc(Cl)cc2)C1 (centres unmarked) [Example 8, 2-((1H-pyrrolo[2,3-b]pyridin-5-yl)oxy)-4-(4-((4′-chloro-5,5-dimethyl-3,4,5,6-tetrahydro-[1,1′-biphenyl]-2-yl)methyl)piperazin-1-yl)-N-((4-(((1-(cyclopropylimino)-1-oxidohexahydro-1λ^6-thiopyran-4-yl)methyl)amino)-3-((trifluoromethyl)sulfonyl)phenyl)sulfonyl)benzamide]	99		
